Measurements published in publication PMC10482691, “LTP induction by structural rather than enzymatic functions of CaMKII” (Nature, 2023).

Biological target: purified CaMKIIα (Rattus norvegicus, UniProt P11275)
Test: In vitro kinase reaction: CaMKIIα autophosphorylation of T286
Type: biochemical
Details: 30 °C, 1 mM ATP, Ki from IC50 with Km ATP 33.3 μM, read-out: apparent inhibitor constant (Ki), pT286
Description: Data are presented as mean values ± s.e.m. a, Schematic of the AS283 inhibitor mechanism of action: ATP-competitive inhibition blocks enzymatic activity while mimicking the nucleotide binding requirement to allow interaction with GluN2B. b, Representative immunoblot and quantification of in vitro kinase reactions at 30 °C in 1 mM ATP measuring purified CaMKIIα phosphorylation of GST–GluA1 S831 with varying concentrations of AS283 (0.41–10 μM; n = 4 independent concentration curves). For a negative control (Neg.), ATP was omitted. […] ADP:AS283 P = 0.0697; ADP:tatCN21 P < 0.0001. ***P < 0.001. d, Confocal microscopy images of HEK293 cells co-expressing GFP–CaMKII and mCherry-2BC. […] CaMKII synaptic enrichment was measured before and after cLTP (n = 14,9 cells; RM two-way ANOVA with Šídák’s multiple comparisons test). […]
CaMKII-mediated phosphorylation of GluA1 S831 or GluN2B S1303 was measured by in vitro kinase reaction with a purified GST–GluA1 C-terminal tail or GST-GluN2B C-terminal tail. […] GST, phospho-S831, CaMKII, phospho-T286 or phospho-S1303 were detected in the samples by immunoblot analysis.
The inhibition constant Ki was calculated using the Cheng–Prusoff equation for competitive inhibition: Ki = IC50/(1 + [ATP]/Km).

NCCNc1cccc(-c2ccnc3[nH]c4ccccc4c23)c1 [AS283]
Ki: 71 nM
